These results are taken from ChEMBL document CHEMBL5321271, “Identification of Novel Quinolin-2(1H)-ones as Phosphodiesterase 1 Inhibitors for the Treatment of Inflammatory Bowel Disease” (J Med Chem, 2023).

Activity calls are given as the source filed them. The rule behind the calls is not given here.

The term IC50 denotes the point on the concentration scale where inhibition reaches its midpoint. One may read the half-life as the time in which the quantity being followed falls by half.

In data set [1] the target is Dual specificity calcium/calmodulin-dependent 3',5'-cyclic nucleotide phosphodiesterase 1C (Homo sapiens, UniProt Q14123). The data set is described as follows: Inhibition of PDE1C (147 to 531 residues) (unknown origin) using 3H-cGMP as substrate incubated for 15 mins by liquid scintillation counter analysis.
Data set [2] concerns RAW264.7. The data set is described as follows: Anti-inflammatory activity in mouse RAW264.7 cells assessed as reduction in LPS-induced NO release at 5 to 10 uM incubated for 24 hrs by Griess method. Type of data set: functional, cell-based. The settings on record: dose 5-10 µM. (In general: Nitrite, measured by Griess reagent, commonly stands in for NO production.)
Data set [3] has as its system Mus musculus. In words: Anti-inflammatory bowel disease activity in DSS-induced inflammatory bowel disease C57BL/6 mouse model assessed as reduction in histological inflammation in colon at 5 mg/kg,ip BID for 7 days by Hematoxylin and eosin staining based microscopy. The settings on record: time 7.0 day. The data set is classed as functional, organism-based.
Data set [4] concerns the target cAMP and cAMP-inhibited cGMP 3',5'-cyclic phosphodiesterase 10A (Homo sapiens, UniProt Q9Y233). In words: Inhibition of PDE10A (449 to 770 residues) (unknown origin) using 3H-cAMP as substrate incubated for 15 mins by liquid scintillation counter analysis.
Data set [5] is described as follows: Metabolic stability in rat liver microsomes assessed as half life.
In data set [6] the test system is RAW264.7. In words: Anti-inflammatory activity in mouse RAW264.7 cells assessed as reduction in LPS-induced IL-1beta mRNA expression at 5 to 10 uM incubated for 24 hrs by qPCR analysis. Type of data set: functional, cell-based. The settings on record: dose 5-10 µM. (In general: In qPCR the cycle at which signal appears reflects the starting amount.)
Data set [7] relates to RAW264.7. The data set is described as follows: Anti-inflammatory activity in mouse RAW264.7 cells assessed as reduction in LPS-induced IL-1alpha mRNA expression at 5 to 10 uM incubated for 24 hrs by qPCR analysis. The data set is classed as functional, cell-based. The settings on record: dose 5-10 µM.
Data set [8] concerns RAW264.7. In words: Anti-inflammatory activity in mouse RAW264.7 cells assessed as reduction in LPS-induced IL-6 mRNA expression at 5 to 10 uM incubated for 24 hrs by qPCR analysis. Type of data set: functional, cell-based. The settings on record: dose 5-10 µM.
Data set [9] concerns Mus musculus. The data set is described as follows: Anti-inflammatory bowel disease activity in DSS-induced inflammatory bowel disease C57BL/6 mouse model assessed as decrease in fecal occult blood by measuring disease activity index score at 5 mg/kg,ip BID for 7 days. The data set is classed as functional, organism-based. The settings on record: time 7.0 day.
Data set [10] concerns the target 3',5'-cyclic-AMP phosphodiesterase 4D (Homo sapiens, UniProt Q08499). In words: Inhibition of PDE4D (86 to 413 residues) (unknown origin) using 3H-cAMP as substrate incubated for 15 mins by liquid scintillation counter analysis.
For data set [11], the system named is Mus musculus. The data set is described as follows: Anti-inflammatory bowel disease activity in DSS-induced inflammatory bowel disease C57BL/6 mouse model assessed as increase in colon length at 5 mg/kg,ip BID for 7 days by vernier calipers analysis. Type of data set: functional, organism-based. The settings on record: time 7.0 day.
Data set [12] concerns the target cGMP-specific 3',5'-cyclic phosphodiesterase (Homo sapiens, UniProt O76074). The data set is described as follows: Inhibition of PDE5A1 (535 to 860 residues) (unknown origin) using 3H-cGMP as substrate incubated for 15 mins by liquid scintillation counter analysis.
Data set [13] deals with Mus musculus. The data set is described as follows: Anti-inflammatory bowel disease activity in DSS-induced inflammatory bowel disease C57BL/6 mouse model assessed as protection of colon crypt structures at 5 mg/kg,ip BID for 7 days by Hematoxylin and eosin staining based microscopy. Type of data set: functional, organism-based. The settings on record: time 7.0 day.
Data set [14] relates to Mus musculus. In words: Anti-inflammatory bowel disease activity in DSS-induced inflammatory bowel disease C57BL/6 mouse model assessed as decrease in body weight loss by measuring disease activity index score at 5 mg/kg,ip BID for 7 days. The data set is classed as functional, organism-based. The settings on record: time 7.0 day.
For data set [15], the target named is cGMP-inhibited 3',5'-cyclic phosphodiesterase 3A (Homo sapiens, UniProt Q14432). In words: Inhibition of PDE3A (679 to 1087 residues) (unknown origin) using 3H-cAMP as substrate incubated for 15 mins by liquid scintillation counter analysis.
Data set [16] relates to Mus musculus. In words: Anti-inflammatory bowel disease activity in DSS-induced inflammatory bowel disease C57BL/6 mouse model assessed as decrease in diarrhoea by measuring disease activity index score at 5 mg/kg,ip BID for 7 days. Type of data set: functional, organism-based. The settings on record: time 7.0 day.
In data set [17] the test system is RAW264.7. In words: Anti-inflammatory activity in mouse RAW264.7 cells assessed as reduction in LPS-induced iNOS mRNA expression at 5 to 10 uM incubated for 24 hrs by qPCR analysis. Type of data set: functional, cell-based. The settings on record: dose 5-10 µM.
Data set [18] concerns the target cGMP-dependent 3',5'-cyclic phosphodiesterase (Homo sapiens, UniProt O00408). The data set is described as follows: Inhibition of PDE2A (580 to 919 residues) (unknown origin) using 3H-cGMP as substrate incubated for 15 mins by liquid scintillation counter analysis.
Data set [19] has as its target High affinity 3',5'-cyclic-AMP phosphodiesterase 7A (Homo sapiens, UniProt Q13946). In words: Inhibition of PDE7A (130 to 482 residues) (unknown origin) using 3H-cAMP as substrate incubated for 15 mins by liquid scintillation counter analysis.
The target of data set [20] is High affinity cGMP-specific 3',5'-cyclic phosphodiesterase 9A (Homo sapiens, UniProt O76083). The data set is described as follows: Inhibition of PDE9A (181 to 506 residues) (unknown origin) using 3H-cGMP as substrate incubated for 15 mins by liquid scintillation counter analysis.
Data set [21] deals with High affinity cAMP-specific and IBMX-insensitive 3',5'-cyclic phosphodiesterase 8A (Homo sapiens, UniProt O60658). In words: Inhibition of PDE8A (480 to 820 residues) (unknown origin) using 3H-cAMP as substrate incubated for 15 mins by liquid scintillation counter analysis.
In data set [22] the test system is RAW264.7. The data set is described as follows: Anti-inflammatory activity in mouse RAW264.7 cells assessed as reduction in LPS-induced TNF-alpha mRNA expression at 5 to 10 uM incubated for 24 hrs by qPCR analysis. The settings on record: dose 5-10 µM. The data set is classed as functional, cell-based.
For data set [23], the system named is Mus musculus. The data set is described as follows: Anti-inflammatory bowel disease activity in DSS-induced inflammatory bowel disease C57BL/6 mouse model assessed as decrease in diarrhoea by measuring disease activity index score at 25 mg/kg,ip BID for 7 days. The data set is classed as functional, organism-based. The settings on record: time 7.0 day.
Data set [24] has as its system Mus musculus. The data set is described as follows: Anti-inflammatory bowel disease activity in DSS-induced inflammatory bowel disease C57BL/6 mouse model assessed as decrease in fecal occult blood by measuring disease activity index score at 25 mg/kg,ip BID for 7 days by Hemo-occult test. The data set is classed as functional, organism-based. The settings on record: time 7.0 day.

Data set [25] can be described thus: Toxicity in DSS-induced inflammatory bowel disease C57BL/6 mouse model assessed as body weight change at 25 mg/kg,ip BID for 7 days. The data set is classed as organism-based. The settings on record: in vivo, 168 h, time 7 day.
In data set [26] the test system is Mus musculus. In words: Anti-inflammatory bowel disease activity in DSS-induced inflammatory bowel disease C57BL/6 mouse model assessed as decrease in body weight loss by measuring disease activity index score at 25 mg/kg,ip BID for 7 days. The data set is classed as functional, organism-based. The settings on record: time 7.0 day.
Data set [27] has as its system Mus musculus. The data set is described as follows: Anti-inflammatory bowel disease activity in DSS-induced inflammatory bowel disease C57BL/6 mouse model assessed as increase in colon length at 25 mg/kg,ip BID for 7 days by vernier calipers analysis. Type of data set: functional, organism-based. The settings on record: time 7.0 day.

High affinity cGMP-specific 3',5'-cyclic phosphodiesterase 9A, sequence (O76083 whole entry, the tested form may be a part): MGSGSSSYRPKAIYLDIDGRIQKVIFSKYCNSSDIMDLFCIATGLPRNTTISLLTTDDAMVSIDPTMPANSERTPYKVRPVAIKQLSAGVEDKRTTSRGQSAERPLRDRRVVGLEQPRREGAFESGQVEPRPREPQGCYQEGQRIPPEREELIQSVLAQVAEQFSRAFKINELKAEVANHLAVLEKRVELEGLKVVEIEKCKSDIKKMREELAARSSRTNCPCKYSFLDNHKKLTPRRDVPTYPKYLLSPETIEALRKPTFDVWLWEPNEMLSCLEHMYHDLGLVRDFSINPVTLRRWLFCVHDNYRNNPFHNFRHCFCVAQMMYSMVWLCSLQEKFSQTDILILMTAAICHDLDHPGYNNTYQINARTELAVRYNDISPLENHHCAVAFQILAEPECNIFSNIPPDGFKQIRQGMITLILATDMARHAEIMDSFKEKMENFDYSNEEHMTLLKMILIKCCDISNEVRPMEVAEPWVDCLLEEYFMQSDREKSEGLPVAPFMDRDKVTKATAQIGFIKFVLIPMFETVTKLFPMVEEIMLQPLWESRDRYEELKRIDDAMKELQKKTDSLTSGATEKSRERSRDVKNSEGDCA
Dual specificity calcium/calmodulin-dependent 3',5'-cyclic nucleotide phosphodiesterase 1C, sequence (Q14123 whole entry, the tested form may be a part): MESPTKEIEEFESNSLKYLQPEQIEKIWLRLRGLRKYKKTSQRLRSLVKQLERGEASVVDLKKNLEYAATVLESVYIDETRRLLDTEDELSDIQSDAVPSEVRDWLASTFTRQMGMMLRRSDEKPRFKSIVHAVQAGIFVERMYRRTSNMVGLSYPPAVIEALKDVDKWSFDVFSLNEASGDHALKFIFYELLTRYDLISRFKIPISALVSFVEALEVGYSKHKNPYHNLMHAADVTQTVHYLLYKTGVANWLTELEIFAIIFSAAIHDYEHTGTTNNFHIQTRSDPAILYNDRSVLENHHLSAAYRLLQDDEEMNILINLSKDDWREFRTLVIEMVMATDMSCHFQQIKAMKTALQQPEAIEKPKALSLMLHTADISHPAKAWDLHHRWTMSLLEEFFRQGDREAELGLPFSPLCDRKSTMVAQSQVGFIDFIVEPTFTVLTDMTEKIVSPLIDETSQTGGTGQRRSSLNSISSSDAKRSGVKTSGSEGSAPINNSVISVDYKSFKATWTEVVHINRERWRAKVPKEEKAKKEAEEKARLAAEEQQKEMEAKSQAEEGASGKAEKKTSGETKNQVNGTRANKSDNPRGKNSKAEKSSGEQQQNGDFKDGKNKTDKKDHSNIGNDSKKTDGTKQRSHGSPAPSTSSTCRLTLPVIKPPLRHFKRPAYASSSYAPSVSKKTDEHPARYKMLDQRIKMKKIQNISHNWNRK
High affinity 3',5'-cyclic-AMP phosphodiesterase 7A, sequence (Q13946 whole entry, the tested form may be a part): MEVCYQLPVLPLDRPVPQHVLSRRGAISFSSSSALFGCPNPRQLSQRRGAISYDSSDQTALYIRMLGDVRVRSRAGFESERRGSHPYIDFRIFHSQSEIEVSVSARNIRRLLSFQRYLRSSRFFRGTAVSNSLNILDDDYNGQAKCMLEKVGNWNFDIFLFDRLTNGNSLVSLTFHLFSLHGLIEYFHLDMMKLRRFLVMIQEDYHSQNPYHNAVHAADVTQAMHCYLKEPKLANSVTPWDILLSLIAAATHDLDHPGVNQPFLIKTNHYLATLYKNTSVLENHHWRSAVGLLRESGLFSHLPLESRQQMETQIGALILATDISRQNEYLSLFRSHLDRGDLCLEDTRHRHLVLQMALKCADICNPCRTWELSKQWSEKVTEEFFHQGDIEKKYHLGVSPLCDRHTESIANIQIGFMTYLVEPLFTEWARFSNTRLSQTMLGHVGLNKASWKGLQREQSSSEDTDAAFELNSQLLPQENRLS
cGMP-dependent 3',5'-cyclic phosphodiesterase, sequence (O00408 whole entry, the tested form may be a part): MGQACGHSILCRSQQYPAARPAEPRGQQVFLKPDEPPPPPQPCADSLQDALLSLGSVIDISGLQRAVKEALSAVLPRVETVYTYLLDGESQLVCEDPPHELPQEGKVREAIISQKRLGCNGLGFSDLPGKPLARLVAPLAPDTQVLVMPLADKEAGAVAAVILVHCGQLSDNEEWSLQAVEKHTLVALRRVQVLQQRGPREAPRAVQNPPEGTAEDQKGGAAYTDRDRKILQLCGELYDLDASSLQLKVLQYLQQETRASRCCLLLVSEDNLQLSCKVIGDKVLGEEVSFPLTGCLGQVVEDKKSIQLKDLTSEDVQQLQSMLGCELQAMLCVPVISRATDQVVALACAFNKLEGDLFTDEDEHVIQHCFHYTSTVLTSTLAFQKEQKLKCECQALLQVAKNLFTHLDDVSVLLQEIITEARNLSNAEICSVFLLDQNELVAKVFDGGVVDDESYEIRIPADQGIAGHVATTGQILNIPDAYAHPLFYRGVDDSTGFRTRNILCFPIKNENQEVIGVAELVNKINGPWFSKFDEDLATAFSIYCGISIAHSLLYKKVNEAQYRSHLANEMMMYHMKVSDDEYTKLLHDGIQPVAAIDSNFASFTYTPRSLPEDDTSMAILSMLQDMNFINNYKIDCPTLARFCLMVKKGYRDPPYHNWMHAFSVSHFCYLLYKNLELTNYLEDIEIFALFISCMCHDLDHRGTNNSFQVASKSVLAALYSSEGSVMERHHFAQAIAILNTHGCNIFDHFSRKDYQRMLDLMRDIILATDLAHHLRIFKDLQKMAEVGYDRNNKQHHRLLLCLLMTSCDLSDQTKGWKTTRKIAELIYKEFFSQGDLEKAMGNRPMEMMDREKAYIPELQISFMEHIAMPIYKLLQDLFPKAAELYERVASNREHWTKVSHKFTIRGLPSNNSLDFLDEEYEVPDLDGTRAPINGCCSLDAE
3',5'-cyclic-AMP phosphodiesterase 4D, sequence (Q08499 whole entry, the tested form may be a part): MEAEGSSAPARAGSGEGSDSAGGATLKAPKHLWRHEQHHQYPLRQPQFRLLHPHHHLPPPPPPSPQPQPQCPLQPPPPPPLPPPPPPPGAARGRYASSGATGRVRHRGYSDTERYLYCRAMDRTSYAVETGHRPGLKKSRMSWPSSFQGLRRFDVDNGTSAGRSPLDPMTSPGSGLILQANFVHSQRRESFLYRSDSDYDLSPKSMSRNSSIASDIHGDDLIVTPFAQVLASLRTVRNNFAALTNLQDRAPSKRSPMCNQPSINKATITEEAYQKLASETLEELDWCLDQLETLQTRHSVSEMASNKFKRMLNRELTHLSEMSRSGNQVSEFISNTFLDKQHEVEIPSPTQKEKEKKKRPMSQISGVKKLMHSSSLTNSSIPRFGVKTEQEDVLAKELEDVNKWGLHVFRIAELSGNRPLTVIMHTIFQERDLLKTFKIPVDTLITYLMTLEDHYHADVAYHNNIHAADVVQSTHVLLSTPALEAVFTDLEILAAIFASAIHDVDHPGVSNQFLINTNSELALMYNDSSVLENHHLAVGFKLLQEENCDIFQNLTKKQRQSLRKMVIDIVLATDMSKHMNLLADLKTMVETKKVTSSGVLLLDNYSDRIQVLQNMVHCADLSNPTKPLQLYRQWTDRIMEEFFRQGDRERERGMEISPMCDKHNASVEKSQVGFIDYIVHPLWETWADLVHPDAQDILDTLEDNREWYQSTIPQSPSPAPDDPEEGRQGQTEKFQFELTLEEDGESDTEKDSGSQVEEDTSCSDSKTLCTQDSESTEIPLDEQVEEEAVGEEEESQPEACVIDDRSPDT
High affinity cAMP-specific and IBMX-insensitive 3',5'-cyclic phosphodiesterase 8A, sequence (O60658 whole entry, the tested form may be a part): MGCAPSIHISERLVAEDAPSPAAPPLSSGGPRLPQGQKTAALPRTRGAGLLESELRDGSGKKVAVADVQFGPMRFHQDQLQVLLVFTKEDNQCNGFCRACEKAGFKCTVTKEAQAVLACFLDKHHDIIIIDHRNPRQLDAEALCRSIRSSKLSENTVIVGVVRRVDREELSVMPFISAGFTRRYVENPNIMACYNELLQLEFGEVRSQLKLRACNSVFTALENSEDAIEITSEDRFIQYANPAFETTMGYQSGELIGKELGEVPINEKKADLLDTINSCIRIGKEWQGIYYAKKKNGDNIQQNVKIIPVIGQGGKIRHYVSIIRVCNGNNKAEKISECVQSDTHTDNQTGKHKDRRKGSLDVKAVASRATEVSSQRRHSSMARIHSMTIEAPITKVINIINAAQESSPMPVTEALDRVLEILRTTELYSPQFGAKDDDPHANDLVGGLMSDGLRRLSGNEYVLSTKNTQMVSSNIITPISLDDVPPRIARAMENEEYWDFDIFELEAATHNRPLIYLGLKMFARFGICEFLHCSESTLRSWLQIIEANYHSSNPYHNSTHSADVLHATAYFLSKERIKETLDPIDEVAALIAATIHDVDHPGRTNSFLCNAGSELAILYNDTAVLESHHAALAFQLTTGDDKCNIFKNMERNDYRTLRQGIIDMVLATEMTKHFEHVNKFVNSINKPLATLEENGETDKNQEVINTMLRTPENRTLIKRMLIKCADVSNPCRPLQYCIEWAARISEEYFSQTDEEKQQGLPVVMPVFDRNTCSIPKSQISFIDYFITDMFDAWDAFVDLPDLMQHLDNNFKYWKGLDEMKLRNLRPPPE

As to `Cc1ccc(-c2c(C#N)c(=O)n(Cc3ccccc3)c3cc(NC(C)c4ccccn4)ccc23)cc1` (configuration not stated), the IC50 in data set [1] came to 15 nM.

With `Cc1ccc(-c2c(C#N)c(=O)n(Cc3ccccc3)c3cc(NC(C)c4ccccc4)ccc23)cc1` (configuration not stated), in data set [1], the IC50 amounted to 55 nM.

Take `N#Cc1c(C2CCCC2)c2ccc(NCc3ccc(F)cn3)cc2n(CC2CCCC2)c1=O`: the Activity result in [2], in data set [6], in data set [7], in data set [8], in data set [17] and in data set [22] was “Dose-Dependent Effect” throughout. In addition, the result in data set [3], in data set [9], in data set [11], in [13], in data set [14] and in data set [16] was Active. Also, the IC50 is 3030 nM in [4]; 610 nM in data set [10]; 15 nM in data set [1]; 2180 nM in [12]; more than 10000 nM in data set [15]; more than 10000 nM in data set [18]. Also, the IC50 in data set [19] is 2300 nM; in data set [20], more than 10000 nM; in [21] it was more than 10000 nM. Further, the half-life in data set [5] came out at 1.6 min.

`N#Cc1c(C2CCCC2)c2ccc(NCC3CCOCC3)cc2n(CC2CCCC2)c1=O`: in data set [1], the IC50 was more than 1000 nM.

As to `Cc1ccc(-c2c(C#N)c(=O)n(Cc3ccncc3)c3cc(NC(C)c4ccccn4)ccc23)cc1` (configuration not stated), in data set [1], the IC50 was more than 1000 nM.

`Cc1ccc(-c2c(C#N)c(=O)n(CC3CCCC3)c3cc(NC(C)c4ccccn4)ccc23)cc1` (configuration not stated): in data set [1], the IC50 turned out to be 25 nM.

On to `CC(Nc1ccc2c(C(C)(C)C)c(C#N)c(=O)n(Cc3ccccc3)c2c1)c1ccccn1` (configuration not stated), for which the half-inhibitory concentration (IC50) in data set [1] was found to be 83 nM.

As for `CCCCCn1c(=O)c(C#N)c(-c2ccc(C)cc2)c2ccc(NC(C)c3ccccn3)cc21` (configuration not stated), the IC50 in data set [1] was more than 1000 nM.

For the molecule `Cc1ccc(-c2c(C#N)c(=O)n(Cc3ccccc3)c3ccccc23)cc1`, the IC50 came out at 48 nM in data set [1] and 5830 nM in [20].

In the case of `C[C@H](Nc1ccc2c(C3CCCC3)c(C#N)c(=O)n(CC3CCCC3)c2c1)c1ccccn1`, the IC50 in data set [1] amounted to 16 nM.

Turning to `CC(C)c1c(C#N)c(=O)n(Cc2ccccc2)c2cc(NC(C)c3ccccn3)ccc12` (configuration not stated), the IC50 in [1] worked out at 22 nM.

For `CC(Nc1ccc2c(C3CCCC3)c(C#N)c(=O)n(CC3CCCC3)c2c1)c1ccccn1` (configuration not stated), in data set [1], the IC50 was 19 nM.

On to `Cc1ccc(-c2c(C#N)c(=O)n(Cc3ccccc3)c3ccc(NC(C)c4ccccn4)cc23)cc1` (configuration not stated), for which the IC50 in data set [1] was determined as 24 nM.

Regarding `OCCN(CCO)c1nc(N2CCCCC2)c2nc(N(CCO)CCO)nc(N3CCCCC3)c2n1` [DIPYRIDAMOLE], the result in [23], in [24], in data set [26] and in [27] was Active. Moreover, the Activity entry in data set [25] is given as “Toxic”.

Turning to `C[C@@H](Nc1ccc2c(C3CCCC3)c(C#N)c(=O)n(CC3CCCC3)c2c1)c1ccccn1`, the half-maximal inhibitory concentration (IC50) in [1] was 38 nM.

With `Cc1ccc(-c2c(C#N)c(=O)[nH]c3ccccc23)cc1`, the IC50 in [1] was 450 nM; in [20], 8.9 nM.

With `CCCCNc1ccc2c(-c3ccc(C)cc3)c(C#N)c(=O)n(Cc3ccccc3)c2c1`, the IC50 in data set [1] was more than 1000 nM.

As for `CC(Nc1ccc2c(C3CC3)c(C#N)c(=O)n(Cc3ccccc3)c2c1)c1ccccn1` (configuration not stated), the IC50 in [1] worked out at 218 nM.

Consider `CC(Nc1ccc2c(C3CCCC3)c(C#N)c(=O)n(Cc3ccccc3)c2c1)c1ccccn1` (configuration not stated), for which, in data set [1], the IC50 came out at 20 nM.

As to `Cc1ccc(-c2c(C#N)c(=O)n(Cc3ccccc3)c3c(NC(C)c4ccccn4)cccc23)cc1` (configuration not stated), the IC50 in data set [1] was more than 1000 nM.
